# “Also recorded” adds a separate entry of the source.
# What was measured:
# [1] = test system: Human plasma; test: Plasma clotting time (prothrombin time); type: biochemical; conditions: human plasma incubated with increasing amounts of vesicles, 24 h at 4° C.
# Protocol: Referring now to FIG. 11, there is shown the effect of charged lipid on blood coagulation. Human plasma was incubated with various amounts of uncharged vesicles, phosphatidylcholine (PC) or anionic vesicles, phosphatidylinositol (PI), for 24 h at 4° C. Prothrombin time was then measured with the use of a commercially available kit.
# [2] = test system: cholesterol associated with HDL, LDL and VLDL; test: Incubation of plasma with PI: lipoprotein cholesterol levels; type: biochemical, human; conditions: added to blood plasma of fasted normolipidemic subject
# Protocol: Referring now to FIG. 2, there is graphically depicted the effect of incubations with PI on the amount of cholesterol associated with HDL (high density lipoprotein), LDL (low density lipoprotein) and VLDL (very low density lipoproteins) following isolation of lipoproteins from plasma of fasted normolipidemic subjects. […] This appears due to the electrostatic effects, that increased lipoprotein PI concentrations have on cholesteryl ester transfer protein. Previous work has shown that this protein controls interlipoprotein cholesterol transfers and is affected by lipoprotein charge (Lagrost 1997).
# [3] = PI mass measurements in HDL after injection of PI vesicles; type: in vivo, rabbit
# Text: The clearance of PI from the different lipoproteins may have been due to either a lipoprotein-cellular transfer or to a selective hydrolysis by a charged phospholipid specific phospholipase.
# [4] = test system: HEPG2 cells; test: Cellular cholesterol uptake from PI-enriched plasma or lipoproteins; type: cell-based
# Text: Almost complete inhibition of the enzyme that produces CE parallelled major increases in the amount of this lipid in VLDL particles. […] Cholesterol transport into VLDL may instead be governed by the charge and structural characteristics of plasma lipoproteins, which may regulate interfacial interactions with specific receptors and cholesterol storage depots on cell surfaces. […] Without wishing to be limited by theory, it is considered that the enhanced uptake of cholesterol from PI-enriched HDL is not facilitated by a scavenger receptor-BI mediated pathway but is associated with a novel protein kinase C dependent uptake pathway. Therefore, it is considered that control of lipoprotein charge by the administration of charged compounds will allow for the manipulation of FC and CE influx/efflux from cell surfaces and the selective control of plasma cholesterol metabolism.
# [5] = test system: HDL, LDL and VLDL; test: Lipoprotein surface charge after injection of PI or PC vesicles into rabbits (agarose gel electrophoresis); type: in vivo, rabbit
# Protocol: (§1) 1-palmitoyl-2-oleoyl-phosphatidylcholine (PC) and 1-palmitoyl-2-oleoyl phosphatidylinositol (PI) vesicles are prepared by drying to completion 40 μmol of each lipid into a 12×75 mm culture tube under N2. The lipids are solubilized in 3 mL of sterile saline comprising 150 mM sodium chloride (pH 7.2) by sonication for 1 minute at constant duty cycle. The vesicles are incubated at 37° C. for 10 minutes and then sonicated at a high output for 4 minutes in 10° C. water bath under N2. In order to determine the rate of clearance of cholesterol from the test animals (rabbits), a radioactive tracer is added to the vesicle preparations prior to injection into the rabbit. 200 μL of 1 μCi/μmL [^3H]-FC is dried into a 12×75 mm culture tube with 40 μmol of PI or POPC. 3 ml of PBS is added to the dried lipids and the mixture is sonicated as described above. This tracer/vesicle preparation is injected and then 5 min later, the PI or PC vesicles were injected and blood is sampled as described below.
# (§2) Male New Zealand white rabbits (3.5-4.0 kg) are fasted for 12 hours prior to injection and remain fasted until after data for the final time point is taken. Rabbits have free access to water during this time. A catheter is inserted into the marginal ear vein and blood samples are collected into tubes containing 7.5% (K3) EDTA solution at the desired time points. A pre-injection blood sample is taken and the vesicle solution of either PI (n=4), or PC (n=2) or saline (n=1) is injected into the marginal ear vein. A sample of blood is removed at 10, 30 min, 1, 3, 6 and 24 h after the injection. All blood samples are placed on ice and then centrifuged at 3000 rpm for 15 min at 4° C. to separate the plasma. In order to ensure that lecithin:cholesterol acyl transferase (LCAT) is inhibited in the stored plasma, iodoacetamide (150 mM) is added to plasma samples as taught by Guerin et al. (1994).
# Lipoprotein fractions are isolated by sequential ultracentrifugation (VLDL+IDL, d<1.019 g/mL; LDL, d=1.019-1.063 g/mL; and HDL, d=1.063-1.21 g/mL) as known to one of skill in the art, and lipoprotein lipid composition (total cholesterol, free cholesterol (FC), and triglyceride (TG) concentrations) are determined enzymatically using kits from Roche Diagnostic (Laval, PQ). An aliquot of each lipoprotein isolated is dialysed into PBS and its surface charge characteristics were determined by electrophoresis on pre-cast 0.5% agarose gels using the procedure of Sparks and Phillips (1992).
# Referring now to FIG. 1, there is illustrated the effect of injection of PI and PC vesicles on the estimated surface potential of HDL, LDL, and VLDL proteins in vivo. […] PC, which is a neutral phospholipid, may also bind to the lipoproteins. However since PC is a neutral phospholipid, no significant change in the migration of the lipoproteins is observed. The increased migratory property of lipoproteins in a gel peaks following injection of PI and returns to normal by about 24 hours. […] Similarly, the VLDL fraction is estimated to have an initial surface potential of about −8.8 mV, which increases to about −11.2 mV after 10 minutes. LDL is estimated to have an initial surface potential of about −3.9 mV, and peaks about 60 min after the PI injection at about −8.0 mV.
# [6] = test system: [^3H]-FC in plasma; test: Clearance of [^3H]-FC from the blood of a rabbit; type: in vivo
# Protocol: as §1, §2
# Referring now to FIG. 5, there is shown the clearance of [^3H]-FC at various times after rabbits are injected with [^3H]-FC and either PI or PC vesicles. […] In comparison, rabbits injected with PC contain approximately 90% of the injected radioactivity after 1 h.
# [7] = test system: lipoprotein CE and FC in whole blood (red blood cells); test: Incubation of whole blood with PC or PI vesicles: lipoprotein CE and FC; type: cell-based, human
# Protocol: Referring now to FIG. 4, there is graphically depicted the effect of PI or PC vesicles on lipoprotein CE and FC. Incubation of whole blood with PC vesicles results in a 60% increase in the CE content of the lipoproteins, while FC content is reduced by about 10%. […] Negatively charged phospholipids appeared to promote a reciprocal exchange of CE for FC between red blood cells and the lipoprotein particles. […] It has previously been taught that red blood cells cannot store CE and therefore utilize a membrane-bound CE hydrolase to maintain membrane FC levels. Without wishing to be bound by theory, the results therefore indicate that PI stimulates the degradation of lipoprotein CE.
smiles,measurement,setting,value
"CCCCCCCC/C=C\CCCCCCCC(=O)O[C@H](COC(=O)CCCCCCCCCCCCCCC)COP(=O)(O)O[C@@H]1[C@H](O)[C@H](O)[C@@H](O)[C@H](O)[C@H]1O [PI, 1-palmitoyl-2-oleoyl phosphatidylinositol]",effect on plasma clotting time (prothrombin time),[1],caused an inhibition to the formation of prothrombin
same,"effect on cholesterol in LDL, VLDL and HDL",[2],reduction of cholesterol in LDL and VLDL and increase in HDL cholesterol levels
same,"level of PI in HDL, of the total HDL-PL","[3]; after 10 min, initially below detection levels",up to 30%
same,"HDL-PI content, of the HDL-PL",[3]; by 3 h,5-10%
same,"effect on cellular cholesterol uptake, PI enrichment of LDL",[4],does not
same,"effect on cellular cholesterol uptake, PI-enrichment of plasma or HDL",[4],stimulates cellular cholesterol uptake
same,"HDL surface potential, peak negative charge","[5]; about 10 minutes after injection, background about −12.2 mV prior to injection, estimated from gel migration",about −18.0 mV
same,"LDL surface potential, peak","[5]; about 60 min after injection, initial about −3.9 mV, estimated",about −8.0 mV
same,VLDL surface potential,"[5]; after 10 minutes, initial about −8.8 mV, estimated",about −11.2 mV
same,time for increased lipoprotein migration to return to normal,[5]; after injection,about 24 hours
same,"effect on lipoprotein net negative surface charge / migration of HDL, LDL and VLDL into agarose gel","[5]; intravenous injection of vesicles, fasted rabbit",significant increase; also recorded: increased migration of all lipoprotein fractions
same,"[^3H]-FC in plasma, of the initial dose",[6]; after about 1 h,about 15%
same,half-life of [^3H]-FC shorter than for PC injected rabbits,"[6]; rabbit, in vivo",about 30 fold
same,increase of lipoprotein FC levels,[7],about 40%
same,reduction of lipoprotein CE,[7],about 40%

# From patent US7390783B2, “Charged phospholipid compositions and methods for their use” (Ottawa Heart Institute Research Corporation, priority 2000, dated 2008)
